Laboratory results from PMC10408569, “Recruitment of hexahydroquinoline as anticancer scaffold targeting inhibition of wild and mutants EGFR (EGFR^WT, EGFR^T790M, and EGFR^L858R)” (Journal of Enzyme Inhibition and Medicinal Chemistry, 2023).

Experiments:
Assay in all cases: NCI-60 anticancer screening (SRB)
Assay type in all cases: cell-based
[1] = test system: CCRF-CEM; details: Homo sapiens, leukemia, one dose 10 μM, read-out: Growth Inhibition Percentage (GI %)
[2] = test system: RPMI-8226; details: Homo sapiens; RPMI-8226, leukemia; one dose 10 μM; read-out: Growth Inhibition Percentage (GI %)
[3] = test system: SR; details: Homo sapiens, leukemia, one dose 10 μM, read-out: Growth Inhibition Percentage (GI %)
[4] = test system: A549/ATCC; details: Homo sapiens; A549/ATCC, NSC lung cancer; one dose 10 μM; read-out: Growth Inhibition Percentage (GI %)
[5] = test system: EKVX; details: Homo sapiens, NSC lung cancer, one dose 10 μM, read-out: Growth Inhibition Percentage (GI %)
[6] = test system: HOP-92; details: Homo sapiens; HOP-92, NSC lung cancer; one dose 10 μM; read-out: Growth Inhibition Percentage (GI %)
[7] = test system: NCI-H226; details: Homo sapiens; NCI-H226, NSC lung cancer; one dose 10 μM; read-out: Growth Inhibition Percentage (GI %)
[8] = test system: NCI-H322M; details: Homo sapiens, NSC lung cancer, one dose 10 μM, read-out: Growth Inhibition Percentage (GI %)
[9] = test system: HCC-2998; details: Homo sapiens; HCC-2998, colon cancer; one dose 10 μM; read-out: Growth Inhibition Percentage (GI %)
[10] = test system: KM 12; details: Homo sapiens, KM12; KM 12, colon cancer; one dose 10 μM; read-out: Growth Inhibition Percentage (GI %)
[11] = test system: SW-620; details: Homo sapiens; SW-620, colon cancer; one dose 10 μM; read-out: Growth Inhibition Percentage (GI %)
[12] = test system: SNB-19; details: Homo sapiens; SNB-19, CNS cancer; one dose 10 μM; read-out: Growth Inhibition Percentage (GI %)
[13] = test system: SNB-75; details: Homo sapiens; SNB-75, CNS cancer; one dose 10 μM; read-out: Growth Inhibition Percentage (GI %)
[14] = test system: U251; details: Homo sapiens, U-251; U251, CNS cancer; one dose 10 μM; read-out: Growth Inhibition Percentage (GI %)
[15] = test system: LOX IMVI; details: Homo sapiens, melanoma, one dose 10 μM, read-out: Growth Inhibition Percentage (GI %)
[16] = test system: MALME-3M; details: Homo sapiens, melanoma, one dose 10 μM, read-out: Growth Inhibition Percentage (GI %)
[17] = test system: SK-MEL-2; details: Homo sapiens; SK-MEL-2, melanoma; one dose 10 μM; read-out: Growth Inhibition Percentage (GI %)
[18] = test system: SK-MEL-28; details: Homo sapiens; SK-MEL-28, melanoma; one dose 10 μM; read-out: Growth Inhibition Percentage (GI %)
[19] = test system: SK-MEL-5; details: Homo sapiens; SK-MEL-5, melanoma; one dose 10 μM; read-out: Growth Inhibition Percentage (GI %)
[20] = test system: OVCAR-3; details: Homo sapiens; OVCAR-3, ovarian cancer; one dose 10 μM; read-out: Growth Inhibition Percentage (GI %)
[21] = test system: OVCAR-4; details: Homo sapiens; OVCAR-4, ovarian cancer; one dose 10 μM; read-out: Growth Inhibition Percentage (GI %)
[22] = test system: OVCAR-5; details: Homo sapiens; OVCAR-5, ovarian cancer; one dose 10 μM; read-out: Growth Inhibition Percentage (GI %)
[23] = test system: SK-OV-3; details: Homo sapiens; SK-OV-3, ovarian cancer; one dose 10 μM; read-out: Growth Inhibition Percentage (GI %)
[24] = test system: 786-0; details: Homo sapiens; 786-0, renal cancer; one dose 10 μM; read-out: Growth Inhibition Percentage (GI %)
[25] = test system: A498; details: Homo sapiens; A498, renal cancer; one dose 10 μM; read-out: Growth Inhibition Percentage (GI %)
[26] = test system: ACHN; details: Homo sapiens, renal cancer, one dose 10 μM, read-out: Growth Inhibition Percentage (GI %)
[27] = test system: CAKI-1; details: Homo sapiens; CAKI-1, renal cancer; one dose 10 μM; read-out: Growth Inhibition Percentage (GI %)
[28] = test system: SN 12C; details: Homo sapiens, SN12C; SN 12C, renal cancer; one dose 10 μM; read-out: Growth Inhibition Percentage (GI %)
[29] = test system: TK-10; details: Homo sapiens; TK-10, renal cancer; one dose 10 μM; read-out: Growth Inhibition Percentage (GI %)
[30] = test system: MDA-MB-231; details: Homo sapiens; MDA-MB-231, breast cancer; one dose 10 μM; read-out: Growth Inhibition Percentage (GI %)
[31] = test system: BT-549; details: Homo sapiens; BT-549, breast cancer; one dose 10 μM; read-out: Growth Inhibition Percentage (GI %)
[32] = test system: T-47D; details: Homo sapiens, T47D, breast cancer, one dose 10 μM, read-out: Growth Inhibition Percentage (GI %)
[33] = test system: MDA-MB-468; details: Homo sapiens; MDA-MB-468, breast cancer; one dose 10 μM; read-out: Growth Inhibition Percentage (GI %)

| Compound | inhibition at 10 µM [1] [%] | inhibition at 10 µM [2] [%] | inhibition at 10 µM [3] [%] | inhibition at 10 µM [4] [%] | inhibition at 10 µM [5] [%] | inhibition at 10 µM [6] [%] | inhibition at 10 µM [7] [%] | inhibition at 10 µM [8] [%] | inhibition at 10 µM [9] [%] | inhibition at 10 µM [10] [%] | inhibition at 10 µM [11] [%] | inhibition at 10 µM [12] [%] | inhibition at 10 µM [13] [%] | inhibition at 10 µM [14] [%] | inhibition at 10 µM [15] [%] | inhibition at 10 µM [16] [%] | inhibition at 10 µM [17] [%] | inhibition at 10 µM [18] [%] | inhibition at 10 µM [19] [%] | inhibition at 10 µM [20] [%] | further results |
| --- | --- | --- | --- | --- | --- | --- | --- | --- | --- | --- | --- | --- | --- | --- | --- | --- | --- | --- | --- | --- | --- |
| CCOC(=O)C1=C(N)N(c2ccc(Cl)cc2)C2=C(C(=O)CC(C)(C)C2)C1c1ccc(OC)cc1 (racemic) [8h, (±)-Ethyl 2-amino-1–(4-chlorophenyl)-4–(4-methoxyphenyl)-7,7-dimethyl-5-oxo-1,4,5,6,7,8-hexahydroquinoline-3-carboxylate] | < 10 | < 10 | < 10 | < 10 | < 10 | < 10 | < 10 | < 10 | < 10 | < 10 | < 10 | < 10 | < 10 | < 10 | < 10 | < 10 | < 10 | < 10 | < 10 | < 10 | inhibition at 10 µM [21]: < 10%; inhibition at 10 µM [22]: < 10%; inhibition at 10 µM [23]: < 10%; inhibition at 10 µM [24]: < 10%; inhibition at 10 µM [25]: < 10%; inhibition at 10 µM [26]: < 10%; inhibition at 10 µM [27]: < 10%; inhibition at 10 µM [28]: < 10%; inhibition at 10 µM [29]: < 10%; inhibition at 10 µM [30]: < 10%; inhibition at 10 µM [31]: 25%; inhibition at 10 µM [32]: < 10%; inhibition at 10 µM [33]: < 10% |
| CCOC(=O)C1=C(N)N(c2ccc(C)cc2)C2=C(C(=O)CC(C)(C)C2)C1c1ccccc1Br (racemic) [6e, (±)-Ethyl 2-amino-4–(2-bromophenyl)-7,7-dimethyl-1–(4-methylphenyl)-5-oxo-1,4,5,6,7,8-hexahydroquinoline-3-carboxylate] | 60 | 64 | 34 | 19 | < 10 | 28 | 15 | < 10 | 11 | 16 | 54 | 13 | 13 | 19 | 11 | < 10 | 15 | < 10 | 23 | 15 | inhibition at 10 µM [21]: 17%; inhibition at 10 µM [22]: < 10%; inhibition at 10 µM [23]: < 10%; inhibition at 10 µM [24]: 17%; inhibition at 10 µM [25]: < 10%; inhibition at 10 µM [26]: 14%; inhibition at 10 µM [27]: 30%; inhibition at 10 µM [28]: 15%; inhibition at 10 µM [29]: < 10%; inhibition at 10 µM [30]: < 10%; inhibition at 10 µM [31]: < 10%; inhibition at 10 µM [32]: 30%; inhibition at 10 µM [33]: 23% |
| CCOC(=O)C1=C(N)N(c2ccc(C)cc2)C2=C(C(=O)CC(C)(C)C2)C1c1cccnc1 (racemic) [12e, (±)-Ethyl 2-amino-7,7-dimethyl-1–(4-methylphenyl)-5-oxo-1-phenyl-4-(pyrdin-3-yl)-1,4,5,6,7,8-hexahydroquinoline-3-carboxylate] | < 10 | 11 | < 10 | < 10 | < 10 | < 10 | < 10 | < 10 | < 10 | < 10 | < 10 | < 10 | 14 | < 10 | < 10 | < 10 | < 10 | < 10 | < 10 | < 10 | inhibition at 10 µM [21]: < 10%; inhibition at 10 µM [22]: < 10%; inhibition at 10 µM [23]: < 10%; inhibition at 10 µM [24]: < 10%; inhibition at 10 µM [25]: < 10%; inhibition at 10 µM [26]: < 10%; inhibition at 10 µM [27]: < 10%; inhibition at 10 µM [28]: < 10%; inhibition at 10 µM [29]: < 10%; inhibition at 10 µM [30]: < 10%; inhibition at 10 µM [31]: < 10%; inhibition at 10 µM [32]: < 10%; inhibition at 10 µM [33]: < 10% |
| CCOC(=O)C1=C(N)N(c2ccc(Cl)cc2)C2=C(C(=O)CC(C)(C)C2)C1c1ccccc1Cl (racemic) [6c, (±)-Ethyl 2-amino-4–(2-chlorophenyl)-1–(4-chlorophenyl)-7,7-dimethyl-5-oxo-1,4,5,6,7,8-hexahydroquinoline-3-carboxylate] | 40 | < 10 | < 10 | 51 | 30 | 29 | 25 | < 10 | 24 | 44 | 48 | 27 | 17 | 54 | 18 | 30 | 24 | < 10 | 66 | 44 | inhibition at 10 µM [21]: 32%; inhibition at 10 µM [22]: < 10%; inhibition at 10 µM [23]: 29%; inhibition at 10 µM [24]: 15%; inhibition at 10 µM [25]: < 10%; inhibition at 10 µM [26]: 40%; inhibition at 10 µM [27]: 43%; inhibition at 10 µM [28]: 31%; inhibition at 10 µM [29]: 43%; inhibition at 10 µM [30]: 24%; inhibition at 10 µM [31]: 40%; inhibition at 10 µM [32]: 67%; inhibition at 10 µM [33]: 60% |
